Results reported in patent publication US8969335B2, “Benzonitrile derivatives as kinase inhibitors” (MERCK PATENT GmbH, priority 2011, dated 2015).
Where two headings read alike, the source gives them in different places.

How the values were obtained:
[1] = molecular target: TANK binding kinase (TBK1) (Homo sapiens (Human), UniProt Q9UHD2); test: TBK1 enzyme assay (384-well flashplate kinase assay); assay type: biochemical; details: 0.6 nM TBK1, 10 μM ATP, 30° C., 120 min
Method: Test for the Inhibition of TBK1
0.6 nM TANK binding kinase (TBK1), 800 nM biotinylated MELK-derived peptide (Biotin-Ah-Ah-[sequence]) and 10 μM ATP (spiked with 0.25 μCi of ^33P-ATP/well) are incubated at 30° C. for 120 min in a total volume of 50 μl (10 mM MOPS, 10 mM Mg acetate, 0.1 mM EGTA, 1 mM DTT, 0.02% of Brij35, 0.1% of BSA, pH 7.5) with or without test compound. The reaction is stopped with 25 μl of 200 mM EDTA. After 30 min at room temperature, the liquid is removed, and each well is washed three times with 100 μl of 0.9% sodium chloride solution. Non-specific reaction is measured in the presence of 100 nM staurosporine. The radioactivity is measured in a Topcount (PerkinElmer).

IKKε = IKKε (Homo sapiens (Human), UniProt Q14164); test: IKKε kinase assay (384-well flashplate assay); assay type: biochemical; details: 1 nM IKKε, 10 μM ATP, 30° C., 2 hours; read-out: IKKε enzyme assay IC50
Method: Test for the Inhibition of IKKε
IKKε—Kinase Assay (IKKepsilon)
The kinase assay is performed as 384-well flashplate assay (for example for Topcount measurement).
1 nM IKKε, 800 nM biotinylated IκBα(19-42) peptide (Biotin-C6-C6-[…]) and 10 μM ATP (spiked with 0.3 μCi of ^33P-ATP/well) are incubated at 30° C. for 2 hours in a total volume of 50 μl (10 mM MOPS, 10 mM Mg acetate, 0.1 mM EGTA, 1 mM dithiothreitol, 0.02% of Brij35, 0.1% of BSA, 0.1% of BioStab, pH 7.5) with or without test compound. The reaction is stopped using 25 μl of 200 mM EDTA. After 30 min at room temperature, the liquid is removed, and each well is washed three times with 100 μl of 0.9% sodium chloride solution. Non-specific reaction is determined in the presence of 3 μM MSC2119074 (BX-795). The radioactivity is measured using a Topcount (PerkinElmer). The results (for example IC50 values) are calculated using program tools provided by the IT Department (for example AssayExplorer, Symyx).

[2] = system: TBK1 + IKKε (phospho-IRF3 @ Ser 386, MDA-MB-468 cells); test: TBK1 + IKKε cell assay: dose response inhibition of phospho-IRF3 @ Ser 386 in MDA-MB-468 cells; assay type: cell-based; details: Homo sapiens
Method: Day 1: MDA-MB-468 cells are detached using HyQ-Tase, counted and sown into a 384-well plate with TC surface and clear bottom in a density of 10,000 cells per well in a total volume of 35 μl of complete medium. Alternatively, the cells are sown directly from frozen glass vials.
Day 2: The cells are pre-treated with inhibitor compounds for 1 h prior to poly(I:C) stimulation. After incubation for 2 h with poly(I:C), the cells are fixed in (para)formaldehyde (PFA) and permeabilised using methanol (MeOH). The cells are then blocked and incubated with an anti-pIRF3 antibody at 4° C. overnight.
Day 3: The primary antibody is washed off, an AlexaFluor488-conjugated secondary antibody is added, the cells are contrast-stained with propidium iodide, followed by image acquisition on an IMX ultra-high content reader.

[3] = poly(I:C) stimulation, nuclear phospho-IRF3, read-out: TBK1 + IKKε cell assay IC50

Sequence of IKKε (Q14164 whole entry): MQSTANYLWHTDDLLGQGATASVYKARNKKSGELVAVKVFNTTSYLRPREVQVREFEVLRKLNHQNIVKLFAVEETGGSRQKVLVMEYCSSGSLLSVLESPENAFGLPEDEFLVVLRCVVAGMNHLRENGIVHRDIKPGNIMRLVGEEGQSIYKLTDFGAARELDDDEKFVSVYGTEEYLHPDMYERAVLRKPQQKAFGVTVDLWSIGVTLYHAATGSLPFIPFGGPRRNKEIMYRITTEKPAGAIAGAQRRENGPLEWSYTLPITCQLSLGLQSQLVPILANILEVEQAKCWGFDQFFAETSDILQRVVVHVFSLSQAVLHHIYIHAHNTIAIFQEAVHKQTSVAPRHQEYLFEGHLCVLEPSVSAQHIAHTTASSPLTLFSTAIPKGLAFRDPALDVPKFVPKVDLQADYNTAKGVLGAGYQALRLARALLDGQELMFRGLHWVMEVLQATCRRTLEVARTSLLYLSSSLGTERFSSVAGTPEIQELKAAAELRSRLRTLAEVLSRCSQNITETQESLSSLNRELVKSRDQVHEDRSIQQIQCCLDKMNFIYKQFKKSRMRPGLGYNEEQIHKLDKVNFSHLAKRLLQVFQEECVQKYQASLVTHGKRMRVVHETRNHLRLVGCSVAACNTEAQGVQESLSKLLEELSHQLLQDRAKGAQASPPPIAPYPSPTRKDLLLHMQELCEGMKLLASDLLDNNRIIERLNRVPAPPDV
Sequence of TANK binding kinase (TBK1) (Q9UHD2 whole entry): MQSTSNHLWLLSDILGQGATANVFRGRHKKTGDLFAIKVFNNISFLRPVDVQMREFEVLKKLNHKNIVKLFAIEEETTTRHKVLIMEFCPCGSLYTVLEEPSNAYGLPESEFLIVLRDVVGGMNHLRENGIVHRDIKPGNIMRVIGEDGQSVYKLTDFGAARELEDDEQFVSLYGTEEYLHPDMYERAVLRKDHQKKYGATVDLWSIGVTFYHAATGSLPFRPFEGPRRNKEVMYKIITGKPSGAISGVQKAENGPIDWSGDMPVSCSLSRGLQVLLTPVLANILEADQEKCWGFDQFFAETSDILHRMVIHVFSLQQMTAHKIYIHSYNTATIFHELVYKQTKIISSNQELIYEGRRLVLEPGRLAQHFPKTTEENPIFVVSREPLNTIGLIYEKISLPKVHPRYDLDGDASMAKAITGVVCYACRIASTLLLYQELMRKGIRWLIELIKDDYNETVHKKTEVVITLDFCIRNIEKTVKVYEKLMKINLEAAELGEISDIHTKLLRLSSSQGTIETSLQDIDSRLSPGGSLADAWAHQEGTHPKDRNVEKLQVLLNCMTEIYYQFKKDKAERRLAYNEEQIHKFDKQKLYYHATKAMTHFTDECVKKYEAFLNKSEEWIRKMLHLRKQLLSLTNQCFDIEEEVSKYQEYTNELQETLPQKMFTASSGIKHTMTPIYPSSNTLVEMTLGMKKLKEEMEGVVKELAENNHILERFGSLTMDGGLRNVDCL

| SMILES | IC50 [1] | IC50 (IKKε) | IC50 [2, 3] | IC50 ([2]; reference inhibitor range, read-out: IC50 of reference inhibitor in phospho-IRF3 cell assay) |
| --- | --- | --- | --- | --- |
| N#Cc1cc(-c2ccnc(Nc3cnc(C4CCOCC4)cn3)c2)ccc1OC1CCOCC1 [Compound A98, 2-(tetrahydropyran-4-yloxy)-5-{2-[5-(tetrahydropyran-4-yl)pyrazin-2-yl-amino]pyridin-4-yl}benzonitrile] | 5 nM | 8 nM | 390 nM | – |
| N#Cc1cc(-c2ccnc(Nc3cnn(CCO)c3)c2)ccc1OC1CCOCC1 [Compound A79, 5-{2-[1-(2-hydroxyethyl)-1H-pyrazol-4-ylamino]pyridin-4-yl}-2-(tetrahydropyran-4-yloxy)benzonitrile] | 120 nM | 91 nM | 4900 nM | – |
| N#Cc1cc(-c2ccnc(Nc3cnn(C4CCNCC4)c3)n2)ccc1OC1CCOCC1 [Compound A64, 5-[2-(1-piperidin-4-yl-1H-pyrazol-4-ylamino)pyrimidin-4-yl]-2-(tetrahydropyran-4-yloxy)-benzonitrile] | 6 nM | 6 nM | 230 nM | – |
| N#Cc1cc(-c2ccnc(Nc3ccc(CN4CCOCC4)cn3)c2)ccc1OC1CCOCC1 [Compound A118, 5-[2-(5-morpholin-4-ylmethylpyridin-2-ylamino)pyridin-4-yl]-2-(tetrahydropyran-4-yloxy)benzonitrile] | 24 nM | 25 nM | 450 nM | – |
| N#Cc1cc(-c2ccnc(Nc3cnc(CO)cn3)c2)ccc1OC1CCOCC1 [Compound A99, 5-[2-(5-hydroxymethylpyrazin-2-ylamino)pyridin-4-yl]-2-(tetrahydropyran-4-yloxy)benzonitrile] | 6 nM | 8 nM | 320 nM | – |
| N#Cc1cc(-c2ccnc(Nc3cncc(C4CCNCC4)n3)c2)ccc1OC1CCOCC1 [Compound A96, 5-[2-(6-piperidin-4-ylpyrazin-2-ylamino)pyridin-4-yl]-2-(tetrahydropyran-4-yloxy)benzonitrile] | 24 nM | 40 nM | 5400 nM | – |
| CN(C)Cc1ccnc(Nc2cc(-c3ccc(OC4CCOCC4)c(C#N)c3)ccn2)c1 [Compound A81, 5-[2-(4-dimethyl-aminomethylpyridin-2-ylamino)pyridin-4-yl]-2-(tetrahydropyran-4-yloxy)benzonitrile] | 14 nM | 10 nM | 350 nM | – |
| N#Cc1cc(-c2ccnc(Nc3ccn(C4CCNCC4)n3)c2)ccc1OCC1CC1 [Compound A107, 2-cyclopropylmethoxy-5-[2-(1-piperidin-4-yl-1H-pyrazol-3-ylamino)pyridin-4-yl]benzonitrile] | 50 nM | 30 nM | 11000 nM | – |
| N#Cc1cc(-c2ccnc(Nc3cnc(C4CCNCC4)cn3)c2)ccc1OC1CCOCC1 [Compound A72, 5-[2-(5-piperidin-4-ylpyrazin-2-ylamino)pyridin-4-yl]-2-(tetrahydropyran-4-yloxy)benzonitrile] | 10 nM | 7 nM | 840 nM | – |
| N#Cc1cc(-c2ccnc(Nc3cnn(CCN4CCCC4)c3)n2)ccc1OC1CCOCC1 [Compound A83, 5-{2-[1-(2-pyrrolidin-1-ylethyl)-1H-pyrazol-4-ylamino]pyrimidin-4-yl}-2-(tetrahydropyran-4-yloxy)benzonitrile] | 60 nM | 88 nM | 5300 nM | – |
| O=C(NCCCNc1nc(Nc2cccc(NC(=O)N3CCCC3)c2)ncc1I)c1cccs1 [BX-795, reference compound] | – | – | – | 200 to 800 nM |
| Cc1cc(Nc2nccc(-c3ccc(OC4CCOCC4)c(C#N)c3)n2)no1 [Compound A80, 5-[2-(5-methylisoxazol-3-ylamino)pyrimidin-4-yl]-2-(tetrahydropyran-4-yloxy)benzonitrile] | 230 nM | 210 nM | 13000 nM | – |
| N#Cc1cc(-c2ccnc(Nc3cnn(C4CCNC4)c3)c2)ccc1OC1CCOCC1 (stereo not shown) [Compound A28, 5-[2-(1-Pyrrolidin-3-yl-1H-pyrazol-4-ylamino)pyridin-4-yl]-2-(tetrahydropyran-4-yloxy)benzonitrile] | 280 nM | 74 nM | 23000 nM | – |
| N#Cc1cc(-c2ccnc(Nc3ccc(-c4cccnc4)cn3)c2)ccc1OC1CCOCC1 [Compound A3, 5-[2-([3,3′]Bipyridinyl-6-ylamino)pyridin-4-yl]-2-(tetrahydropyran-4-yloxy)benzonitrile] | 260 nM | 370 nM | 3300 nM | – |
| N#Cc1cc(-c2ccnc(Nc3cnn(C[C@H]4C[C@@H]4CO)c3)n2)ccc1OCC1CCC1 [Compound A95, 2-cyclobutylmethoxy-5-{2-[1-((1S,2S)-2-hydroxymethylcyclopropylmethyl)-1H-pyrazol-4-ylamino]pyrimidin-4-yl}benzonitrile] | 10 nM | 8 nM | 810 nM | – |
| Cc1coc(Nc2nccc(-c3ccc(OC4CCOCC4)c(C#N)c3)n2)n1 [Compound A93, 5-[2-(4-methyloxazol-2-ylamino)pyrimidin-4-yl]-2-(tetrahydropyran-4-yloxy)benzonitrile] | 550 nM | 310 nM | – | – |
| N#Cc1cc(-c2ccnc(Nc3ccc(=O)[nH]n3)n2)ccc1OC1CCOCC1 [Compound A69, 5-[2-(6-oxo-1,6-dihydropyridazin-3-ylamino)pyrimidin-4-yl]-2-(tetrahydropyran-4-yloxy)benzonitrile] | 1600 nM | 650 nM | – | – |
| N#Cc1cc(-c2ccnc(Nc3cc(N4CCOCC4)ccn3)c2)ccc1OC1CCOCC1 [Compound A82, 5-[2-(4-morpholin-4-ylpyridin-2-ylamino)pyridin-4-yl]-2-(tetrahydropyran-4-yloxy)benzonitrile] | 230 nM | 150 nM | – | – |
| Cn1nc(Nc2nccc(-c3ccc(OC4CCOCC4)c(C#N)c3)n2)ccc1=O [Compound A68, 5-[2-(1-methyl-6-oxo-1,6-dihydropyridazin-3-ylamino)pyrimidin-4-yl]-2-(tetrahydropyran-4-yloxy)benzonitrile] | 160 nM | 200 nM | – | – |
| N#Cc1cc(-c2ccnc(Nc3cc(C(=O)O)ccn3)c2)ccc1OC1CCOCC1 [Compound A65, 2-{4-[3-cyano-4-(tetrahydropyran-4-yloxy)phenyl]pyridin-2-ylamino}isonicotinic acid] | 170 nM | 120 nM | – | – |
| CC(C)(C)c1cc(Nc2cc(-c3ccc(OC4CCOCC4)c(C#N)c3)ccn2)on1 [Compound A31, 5-[2-(3-tert-Butylisoxazol-5-ylamino)pyridin-4-yl]-2-(tetrahydropyran-4-yloxy)benzonitrile] | 860 nM | 850 nM | – | – |
| N#Cc1cc(-c2ccnc(Nc3cn[nH]c3)c2)ccc1OCC1CC1 [Compound A104, 2-cyclopropylmethoxy-5-[2-(1H-pyrazol-4-ylamino)pyridin-4-yl]-benzonitrile] | 460 nM | 96 nM | – | – |
| N#Cc1cc(-c2ccnc(Nc3cnn(CCC4CCNCC4)c3)n2)ccc1OC1CCOCC1 [Compound A45, 5-{2-[1-(2-Piperidin-4-ylethyl)-1H-pyrazol-4-ylamino]pyrimidin-4-yl}-2-(tetrahydropyran-4-yloxy)benzonitrile] | 2 nM | 2 nM | – | – |
| N#Cc1cc(-c2ccnc(Nc3ccc4oc(C(N)=O)cc4c3)n2)ccc1OC1CCOCC1 [Compound A42, 5-{4-[3-Cyano-4-(tetrahydropyran-4-yloxy)phenyl]pyrimidin-2-ylamino}benzofuran-2-carboxamide] | 10 nM | 15 nM | – | – |
| N#Cc1cc(-c2ccnc(Nc3cc(CO)ccn3)c2)ccc1OC1CCOCC1 [Compound A18, 5-[2-(4-Hydroxymethylpyridin-2-ylamino)pyridin-4-yl]-2-(tetrahydropyran-4-yloxy)benzonitrile] | 8 nM | 13 nM | – | – |
| COCCn1cc(Nc2cc(-c3ccc(OCC4CCN(C(C)=O)CC4)c(C#N)c3)ccn2)cn1 [Compound A114, 2-(1-acetylpiperidin-4-ylmethoxy)-5-{2-[1-(2-methoxyethyl)-1H-pyrazol-4-ylamino]pyridin-4-yl}benzonitrile] | 5500 nM | 650 nM | – | – |
| N#Cc1cc(-c2ccnc(Nc3cnn(CCn4cccn4)c3)c2)ccc1OC1CCOCC1 [Compound A38, 5-{2-[1-(2-Pyrazol-1-ylethyl)-1H-pyrazol-4-ylamino]pyridin-4-yl}-2-(tetrahydropyran-4-yloxy)benzonitrile] | 460 nM | 320 nM | – | – |
| N#Cc1cc(-c2ccnc(Nc3nccnc3CO)c2)ccc1OC1CCOCC1 [Compound A102, 5-[2-(3-hydroxymethylpyrazin-2-ylamino)pyridin-4-yl]-2-(tetrahydropyran-4-yloxy)benzonitrile] | 350 nM | 430 nM | – | – |
| N#Cc1cc(-c2ccnc(Nc3ccc(CO)cn3)c2)ccc1OCC1CCC1 [Compound A111, 2-cyclobutylmethoxy-5-[2-(5-hydroxymethylpyridin-2-ylamino)pyridin-4-yl]benzonitrile] | 89 nM | 200 nM | – | – |
| N#Cc1cc(-c2ccnc(Nc3ccc(CO)cn3)c2)ccc1OC1CCOCC1 [Compound A15, 5-[2-(5-Hydroxymethylpyridin-2-ylamino)pyridin-4-yl]-2-(tetrahydropyran-4-yloxy)benzonitrile] | 14 nM | 21 nM | – | – |
